Data from US11413278B2, “Compounds and methods for promoting stress resistance” (priority 2015, dated 2022).
Like-named read-outs stand apart in the source and are kept apart here.

Tests used:
WI-38 cells [1] = experiment: Propidium iodide (PI) cell-death imaging upon H2O2 stress; assay type: cell-based, human; conditions: for Assay 7: H2O2-resistant, at 10 uM, validated by propidium iodide (PI) cell-death imaging: w/H2O2, 3 hrs/4 hrs/5 hrs, YES/NO; for cytotoxicity at 10 µM: Homo sapiens, WI-38
WI-38 cells [2] = experiment: CdCl2 (cadmium) resistance assay; assay type: cell-based, human; conditions: for fold induction at 10 µM: Homo sapiens, 12 h, normalized ATP measurement; for Assay 4: H2O2- & Cd-resistant / Assay 2: Cadmium-resistant: YES/NO; for Assay 2: Cadmium-resistant: * indicates partial
Summary of the method: (§1)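 Resistance to CdCl2 or MMS stress (12 h exposure) was scored in WI-38 fibroblasts pretreated with compound at 0.25–20 μM final, five doses, technical triplicates. MMS plates had compound added 24 h before MMS, after a shift to serum-free DMEM+2% BSA. Significance came from a global variance t-test over two independent runs.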

WI-38 cells [3] = experiment: MMS resistance assay; assay type: cell-based, human; conditions: for fold induction at 10 µM: Homo sapiens, 12 h, normalized ATP measurement
Summary of the method: as §1

[4] = test system: human dermal fibroblast (HDF) primary cells; experiment: H2O2-resistance in primary human dermal fibroblasts; assay type: cell-based; conditions: for fold induction at 10 µM: Homo sapiens; for Assay 6: H2O2-resistant, at 10 uM, human dermal fibroblast (HDF) primary cells: YES/NO
C. elegans = assay type: in vivo, Caenorhabditis elegans; conditions: in vivo
Summary of the method: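 Survival under oxidative stress: 500 μM H2O2 (final) was added to day-4 adults kept in liquid with compounds, FUdR present, 4 wells per molecule and 0.2% DMSO controls, with daily scoring of viability.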

WI-38 cells [5] = experiment: Long-term effects on cell viability (5 days, ATP; morphology, PI imaging); assay type: cell-based; conditions: 10 μM; for Luminescence signal for ATP measurement, day-1 Average / Luminescence signal for ATP measurement, day-2 Average / Luminescence signal for ATP measurement, day-3 Average / Luminescence signal for ATP measurement, day-4 Average / Luminescence signal for ATP measurement, day-5 Average / viability at 10 µM: Batch 1; for Luminescence signal for ATP measurement, day-1 Average / Luminescence signal for ATP measurement, day-2 Average / Luminescence signal for ATP measurement, day-3 Average / Luminescence signal for ATP measurement, day-4 Average / Luminescence signal for ATP measurement, day-5 Average: n = 6, day-0 luminescence = 320956 ± 24708; for viability at 10 µM: Homo sapiens, WI-38, 120 h, DMSO ctrl = 100.0%, read-out: ATP luminescence by day-5 normalized; for Luminescence signal for ATP measurement, day-5 Average / viability at 10 µM: day-5;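 on Luminescence signal for ATP measurement, day-2 Average: compounds at 10 µM with ATP read daily over 5 days of treatment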;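 on Luminescence signal for ATP measurement, day-3 Average: compounds at 10 µM with ATP read daily over 5 days of treatment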;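 on Luminescence signal for ATP measurement, day-4 Average: compounds at 10 µM with ATP read daily over 5 days of treatment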;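 on Luminescence signal for ATP measurement, day-5 Average: compounds at 10 µM with ATP read daily over 5 days of treatment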
[6] = Summary score for characterization of 38 core set hits; conditions: for D = Triple resistant: 2-point score, multiplex resistance (cadmium, MMS, H2O2); for S = Sum of Negative scores: human; for C = H2O2- & Cd-resistant: score, resistance to both H2O2 and cadmium
Summary of the method: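 Each score sums results of individual assays on H2O2-resistance screen hits. Nematode lifespan assays were run in 4 to 6 independent trials and scored up to 2. Key phenotypes such as multiplex resistance, FOXO3/NRF2 activation and mTOR down-regulation were weighted at 2 points, with a deduction for human-cell toxicity.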

[7] = H2O2 3 hrs, 10 uM, n = 6, negative control 5.44% ± 0.79%, read-out: Percentage of propidium iodide-positive dead cells (under H2O2 stress treatment), 3 hrs
[8] = H2O2 4 hrs, 10 uM, n = 6, negative control 16.81% ± 1.42%, read-out: Percentage of propidium iodide-positive dead cells (under H2O2 stress treatment), 4 hrs
[9] = H2O2 5 hrs, 10 uM, n = 6, negative control 22.50% ± 1.53%, read-out: Percentage of propidium iodide-positive dead cells (under H2O2 stress treatment), 5 hrs
[10] = pre-treatment at 10 uM, 3.5 hours of H2O2, DMSO control 27.4% ± 6.5%, */**/*** = reduced by one/two/three standard deviations, read-out: Percentage of propidium iodide-positive dead cells (under H2O2 stress treatment), at 10 uM
[11] = score in summary of 38 core set hits
[12] = Experiment 1, HDF cells, read-out: Experiment 1, HDF cells (under H2O2 stress treatment), at 10 uM (fold change)
[13] = Experiment 2, HDF cells, read-out: Experiment 2, HDF cells (under H2O2 stress treatment), at 10 uM (fold change)
[14] = Exp. 1, WI-38 cells, read-out: Exp. 1, under Cd2Cl2 stress treatment, at 10 uM (fold change)
[15] = Exp. 2, WI-38 cells, read-out: Exp. 2, under Cd2Cl2 stress treatment, at 10 uM (fold change)
[16] = WI-38 cells, 10 μM, both stressors
[17] = Exp. 1, WI-38 cells, read-out: Exp. 1, under MMS stress treatment, at 10 uM (fold change)
[18] = Exp. 2, WI-38 cells, read-out: Exp. 2, under MMS stress treatment, at 10 uM (fold change)

| Structure (SMILES) | Assay 7: H2O2-resistant, at 10 uM, validated by propidium iodide (PI) cell-death imaging (WI-38 cells [1]; 10 uM) | cytotoxicity at 10 µM (WI-38 cells [1]; [7]) [%] | cytotoxicity at 10 µM (WI-38 cells [1]; [10]) [%] | A = Cadmium resistant (WI-38 cells [2]; [11]) | A = Cadmium resistant (WI-38 cells [2]; summary score) | C = H2O2- & Cd-resistant (WI-38 cells [2]; summary score) | B = MMS resistant (WI-38 cells [3]; [11]) | B = MMS resistant (WI-38 cells [3]; summary score) | D = Triple resistant (WI-38 cells [3]; summary score) | fold induction at 10 µM [4, 12] | fold induction at 10 µM [4, 13] | Assay 6: H2O2-resistant, at 10 uM, human dermal fibroblast (HDF) primary cells [4] | L = H2O2-resistance in worms (C. elegans) | N = H2O2-resistance in woms (C. elegans) | Luminescence signal for ATP measurement, day-1 Average (WI-38 cells [5]) | Luminescence signal for ATP measurement, day-2 Average (WI-38 cells [5]) | Luminescence signal for ATP measurement, day-3 Average (WI-38 cells [5]) | Luminescence signal for ATP measurement, day-4 Average (WI-38 cells [5]) | Luminescence signal for ATP measurement, day-5 Average (WI-38 cells [5]) | viability at 10 µM (WI-38 cells [5]) [%] | other results |
| --- | --- | --- | --- | --- | --- | --- | --- | --- | --- | --- | --- | --- | --- | --- | --- | --- | --- | --- | --- | --- | --- |
| N=C1S/C(=C\c2cn(-c3ccccc3)nc2-c2cccs2)C(=O)N1c1nccs1 [Gr-6C] | YES | 1.17 | 7.9 | 0 | 0 | 0 | 0 | 0 | 0 | 0.01 | 50.6 | YES | 0 | 0 | 435273 | 542716 | 574765 | 624471 | 548865 | 53.5 | cytotoxicity at 10 µM (WI-38 cells [1]; [8]): 1.39%; cytotoxicity at 10 µM (WI-38 cells [1]; [9]): 6.12%; O = Potential toxicity (WI-38 cells [5]; human, 5 days): 0; Q = Potential toxicity (WI-38 cells [5]; human, 5 days): 1; D = Triple resistant [6]: 0; S = Sum of Negative scores [6]: 2; C = H2O2- & Cd-resistant [6]: 0 |
| O=C1NCCCc2cc(Cl)sc21 [O1] | YES | 5.8 | 20.4 | 1 | 1 | 1 | 0 | 0 | 0 | 2.95 | 17.8 | YES | 0 | 0 | 461478 | 722566 | 824266 | 1101026 | 977541 | 95.2 | CdCl2-resistant (WI-38 cells [2]): YES; H2O2- & CdCl2-resistant (WI-38 cells [2]): YES; fold induction at 10 µM (WI-38 cells [2]; [14]): 1.84; fold induction at 10 µM (WI-38 cells [2]; [15]): 1.86; CdCl2-resistant (WI-38 cells [2]; WI-38 cells, 10 μM): YES; H2O2- & CdCl2-resistant (WI-38 cells [2]; [16]): YES; Assay 4: H2O2- & Cd-resistant (WI-38 cells [2]): YES; Assay 2: Cadmium-resistant (WI-38 cells [2]): YES; fold induction at 10 µM (WI-38 cells [3]; [17]): 1.2; fold induction at 10 µM (WI-38 cells [3]; [18]): 4.96; O = Potential toxicity (WI-38 cells [5]; human, 5 days): 0; Q = Potential toxicity (WI-38 cells [5]; human, 5 days): 0; D = Triple resistant [6]: 0; S = Sum of Negative scores [6]: 0; C = H2O2- & Cd-resistant [6]: 1 |
| COc1cccc(/C=C2\CN(C)C/C(=C\c3cccc(OC)c3OC)C2=O)c1OC [O23] | YES | 5.65 | 10.2 | 0 | 1 | 1 | 0 | 0 | 0 | 1.68 | 52.4 | YES | 0 | 0 | 329880 | 149226 | 52831 | 53125 | 52771 | 5.1 | cytotoxicity at 10 µM (WI-38 cells [1]; [8]): 4.76%; cytotoxicity at 10 µM (WI-38 cells [1]; [9]): 8%; fold induction at 10 µM (WI-38 cells [2]; [14]): 0.69; fold induction at 10 µM (WI-38 cells [2]; [15]): 0.64; Assay 4: H2O2- & Cd-resistant (WI-38 cells [2]): YES; Assay 2: Cadmium-resistant (WI-38 cells [2]): YES; fold induction at 10 µM (WI-38 cells [3]; [17]): 1.04; fold induction at 10 µM (WI-38 cells [3]; [18]): 1.28; H2O2-resistance assay, 1st experiment (C. elegans): YES;; O = Potential toxicity (WI-38 cells [5]; human, 5 days): 1; Q = Potential toxicity (WI-38 cells [5]; human, 5 days): 1; D = Triple resistant [6]: 0; S = Sum of Negative scores [6]: 1; C = H2O2- & Cd-resistant [6]: 0 |
| CCc1ccccc1NC(=O)c1ccc([N+](=O)[O-])o1 [Gr-1C] | YES | 2.49 | 7.8 | 1 | 1 | 1 | 0 | 0 | 0 | 15.2 | 49.1 | YES | 0 | 0 | 421913 | 545683 | 662368 | 875881 | 819655 | 79.8 | cytotoxicity at 10 µM (WI-38 cells [1]; [8]): 3.1%; cytotoxicity at 10 µM (WI-38 cells [1]; [9]): 4.05%; CdCl2-resistant (WI-38 cells [2]): YES; H2O2- & CdCl2-resistant (WI-38 cells [2]): YES; fold induction at 10 µM (WI-38 cells [2]; [14]): 7.9; fold induction at 10 µM (WI-38 cells [2]; [15]): 9.86; CdCl2-resistant (WI-38 cells [2]; WI-38 cells, 10 μM): YES; H2O2- & CdCl2-resistant (WI-38 cells [2]; [16]): YES; Assay 4: H2O2- & Cd-resistant (WI-38 cells [2]): YES; Assay 2: Cadmium-resistant (WI-38 cells [2]): YES; fold induction at 10 µM (WI-38 cells [3]; [17]): 0.73; fold induction at 10 µM (WI-38 cells [3]; [18]): 0.39; O = Potential toxicity (WI-38 cells [5]; human, 5 days): 1; Q = Potential toxicity (WI-38 cells [5]; human, 5 days): 0; D = Triple resistant [6]: 0; S = Sum of Negative scores [6]: 1; C = H2O2- & Cd-resistant [6]: 1 |
| O=C(Nc1cc(C(F)(F)F)ccc1Cl)c1ccc([N+](=O)[O-])o1 [Gr-1B] | YES | 2.69 | 38.1 | 1 | 1 | 1 | 0 | 0 | 0 | 0.51 | 53.7 | YES | 0 | 0 | 442035 | 577575 | 726850 | 977658 | 1021113 | 99.4 | CdCl2-resistant (WI-38 cells [2]): YES; H2O2- & CdCl2-resistant (WI-38 cells [2]): YES; fold induction at 10 µM (WI-38 cells [2]; [14]): 2.01; fold induction at 10 µM (WI-38 cells [2]; [15]): 1.72; CdCl2-resistant (WI-38 cells [2]; WI-38 cells, 10 μM): YES; H2O2- & CdCl2-resistant (WI-38 cells [2]; [16]): YES; Assay 4: H2O2- & Cd-resistant (WI-38 cells [2]): YES; Assay 2: Cadmium-resistant (WI-38 cells [2]): YES; fold induction at 10 µM (WI-38 cells [3]; [17]): 0.7; fold induction at 10 µM (WI-38 cells [3]; [18]): 3.03; Assay 3: MMS-resistant (WI-38 cells [3]; YES/NO, * indicates partial): NO *; Assay 5: Triple resistant (WI-38 cells [3]; YES/NO, H2O2, cadmium and MMS): YES; O = Potential toxicity (WI-38 cells [5]; human, 5 days): 1; Q = Potential toxicity (WI-38 cells [5]; human, 5 days): 0; Reduction of ATP content after 5 days of continuous incubation (WI-38 cells [5]; human, 5 days): more than 40%; D = Triple resistant [6]: 0; S = Sum of Negative scores [6]: 0; C = H2O2- & Cd-resistant [6]: 1 |
